Test results: PubChem BioAssay (NCI)
Where “and” joins values, the source holds several entries; their conditions need not be identical. Identical values can stand only once.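 Following 48 hours of exposure in 96-well plates, responses at five concentrations were used to interpolate endpoints linearly. Abbreviation: GI50, concentration required for 50% inhibition of growth. TGI: concentration producing complete growth inhibition.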

Columns and labels:
Test in all cases: NCI anticancer screen, dose series, 48 h
BT-549 breast = tested on: BT-549 breast
NCI-H460 lung = tested on: NCI-H460 lung
M14 melanoma = tested on: M14 melanoma
KM12 colon = tested on: KM12 colon
HCC-2998 colon = tested on: HCC-2998 colon
HCT-116 colon = tested on: HCT-116 colon
HOP-92 NSCLC = tested on: HOP-92 NSCLC
MDA-MB-435 = tested on: MDA-MB-435
SW-620 colon = tested on: SW-620 colon
HL-60(TB) leukemia = tested on: HL-60(TB) leukemia

Row | SMILES | TGI (BT-549 breast) [µM] | TGI (NCI-H460 lung) | TGI (M14 melanoma) [µM] | TGI (KM12 colon) | TGI (HCC-2998 colon) [µM] | TGI (HCT-116 colon) [µM] | TGI (HOP-92 NSCLC) | TGI (MDA-MB-435) | TGI (SW-620 colon) | TGI (HL-60(TB) leukemia) [µM] | GI50 (HCC-2998 colon) [µM] | GI50 (MDA-MB-435) [µM]
1 | COC(=O)C1CCC(=S)N1C(C)=O (stereo not given) | > 100 | > 100 µM | > 100 | > 100 µM | > 100 | > 100 | > 100 µM | > 100 µM | > 100 µM |  |  | 
2 | CSC(=NCCCN=C(NS(=O)(=O)c1ccc(Cl)cc1)SC)NS(=O)(=O)c1ccc(Cl)cc1 |  | > 100 µM | > 100 |  | 83.6 | > 100 | 67.9 µM | > 100 µM | > 100 µM | 47.1 |  | 
3 | O=CC12CCCN1CCC2 | > 100 | > 100 µM | > 100 |  | > 100 | > 100 |  | > 100 µM | > 100 µM |  |  | 
4 | CCCCC(C)(C/C=C/[C@@H]1[C@@H](C(O)CCCCCC(=O)OC)C(=O)C[C@H]1O[Si](C)(C)C(C)(C)C)O[Si](C)(C)C (stereo not given in full) | > 100 | > 100 µM | > 100 | > 100 µM | > 100 | > 100 | > 100 µM | > 100 µM | > 100 µM |  |  | 
5 | CO[C@@H](c1ccccc1)[C@H](O)[C@@](O)(c1ccccc1)P(=O)(OC)OC | > 100 | > 100 µM | > 100 | > 100 µM |  | > 100 | > 100 µM | > 100 µM | > 100 µM | > 100 |  | 
6 | CC(C)[C@H](NC(=O)OCc1ccccc1)C(=O)N[C@H](/C=C/C(=O)OC(C)(C)C)CO |  | > 100 µM | > 100 | > 100 µM | > 100 | > 100 | > 100 µM | > 100 µM | > 100 µM | > 100 |  | 
7 | Oc1[nH]c2ccccc2c1N=Nc1nc(-c2ccccc2)cs1 |  | 46.6 µM | > 100 | > 100 µM | > 100 | > 100 | > 100 µM | > 100 µM | > 100 µM |  |  | 
8 | Cc1ccc(C(=O)C2CC3(CCC2(O)c2ccc(C)cc2)CC(=O)Nc2ccccc2C3=O)cc1 (stereo not given) | > 100 | > 100 µM | > 100 |  | > 100 | > 100 | > 100 µM | > 100 µM | > 100 µM | > 100 |  | 
9 | N/N=C(\N)SCc1ccc(N=C=S)cc1 |  | > 100 µM |  | > 100 µM | > 100 | > 100 | > 100 µM | > 100 µM | > 100 µM | > 100 |  | 
10 | C/C(=C\CNc1ncnc2c1ncn2CCC#N)CO |  | > 100 µM | > 100 | > 100 µM | > 100 | > 100 | > 100 µM | > 100 µM | > 100 µM | > 100 |  | 
11 | COC1=C(C)C(=O)C2=C(C1=O)C1C3CC4=C(C(=O)C(OC)=C(C)C4=O)C(CNC(=O)C(C)=O)N3C(C#N)C(C2)N1C (stereo not given) | 0.0017 | 0.0318 µM and 0.211 µM and 0.151 µM |  | 0.0313 µM and 0.0726 µM |  |  | 0.00425 µM and 0.0162 µM | 0.00124 µM and 0.00553 µM | 0.297 µM and 0.125 µM |  | 0.000219 | 0.00034
12 | Cc1ccc(C)c(C(=O)CC2OC(O)C(Cl)C2Cl)c1 (stereo not given) |  | > 100 µM | > 100 | > 100 µM | > 100 | > 100 | 77.3 µM |  | 33.5 µM | 95.7 |  | 
13 | O=C(C[N+]1(c2ccccc2)CCOCC1)c1ccccc1 | > 100 | > 100 µM | > 100 | > 100 µM | > 100 | > 100 | > 100 µM | > 100 µM |  |  |  | 
14 | O=[N+]([O-])c1cccc2c1[nH]c1c(-c3ccccc3)nccc12 |  | > 100 µM |  | 12.3 µM | 13.9 | 11.2 | 3.05 µM |  | > 36.9 µM | 4.35 |  | 
15 | COc1cc(CC2C(=O)OCC2Cc2ccc(OC)c(OC)c2)ccc1O (stereo not given) | > 100 | > 100 µM | > 100 | > 100 µM |  | > 100 | > 100 µM | > 100 µM | > 100 µM | > 100 |  | 
16 | Nc1nc2c(ccc3ccccc32)[nH]1 |  | > 10 µM | > 10 | > 10 µM | > 10 | > 10 |  | > 10 µM | > 10 µM | > 10 |  | 
17 | COc1ccc(OC)c2c(Nc3ccc(S(=O)(=O)O)c4cc(S(=O)(=O)O)cc(S(=O)(=O)O)c34)cc(C)nc12 | > 100 | > 100 µM | > 100 | > 100 µM | > 100 | > 100 |  | > 100 µM | > 100 µM | > 100 |  | 
18 | Cc1c(N(Cc2ccccc2)Cc2ccccc2)nc(S(C)(=O)=O)nc1S(C)(=O)=O |  | 22.1 µM | 4.3 |  | 3.2 | 3.02 | 8.4 µM |  | 3.61 µM | 4.28 |  | 
19 | N=c1sc(N2CCOCC2)nn1CC(=O)c1ccccc1 | > 100 | > 100 µM | > 100 | > 100 µM | > 100 | > 100 |  | > 100 µM | > 100 µM | > 100 |  | 
20 | Nc1nc(N)c2ncn(Cc3ccccc3)c2n1 | > 100 |  | > 100 | > 100 µM | > 100 | > 100 | > 100 µM | > 100 µM | > 100 µM |  |  | 
21 | NS(=O)(=O)C1CCCCC1C(=O)NNC(=O)C(=O)Nc1nc(=S)[nH][nH]1 (stereo not given) |  | > 100 µM | > 100 | > 100 µM | > 100 | > 100 | > 100 µM |  | > 100 µM | > 100 |  | 
22 | Cc1cccc2c1Oc1ncccc1C2NC(=O)CN(C)C (stereo not given) | > 10 | > 10 µM | > 10 | > 10 µM | > 10 |  | > 10 µM | > 10 µM | > 10 µM | > 10 |  | 
23 | Nn1c(=S)[nH]nc(/C=C/c2c(O)ccc3ccccc23)c1=O | 31.3 | 76.5 µM | 41.6 | 59.5 µM | 54.5 | 12.5 |  | > 100 µM | > 100 µM | 4.14 |  | 
24 | CCCCN1/C(=N/Nc2n[nH]c(=O)c3ccccc23)SCC1c1ccc(Cl)cc1 (stereo not given) |  | 24.8 µM | 19.5 | 19.6 µM |  | 44.8 | > 100 µM | 31.9 µM | 53 µM | > 100 |  | 
